# Experimental data taken from BindingDB's records for doi:10.1110/ps.0229303 (Gsk, 2003).
# Assays:
# Assay in all cases: PDF Inhibition Assay
# Conditions in all cases: pH 7.6; 25 °C
# Peptide deformylase [1] = biological target: T1, Peptide deformylase (Haemophilus influenzae (strain ATCC 51907 / DSM 11121 / KW20 / Rd), UniProt P44786)
# T1 sequence (P44786 whole entry): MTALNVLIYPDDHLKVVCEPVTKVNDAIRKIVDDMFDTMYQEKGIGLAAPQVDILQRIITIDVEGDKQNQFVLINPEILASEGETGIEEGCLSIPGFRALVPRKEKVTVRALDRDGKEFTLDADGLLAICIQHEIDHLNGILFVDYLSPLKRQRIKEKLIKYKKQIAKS
# Description: (§1) Enzyme assay was carried out in 96-well microtiter plates with a SpectraMax plate reader (Molecular Devices Corp.). PDF activity was measured using a continuous enzyme-linked assay. The reaction was triggered with the addition of PDF enzyme, and absorbance was monitored for 15 min at 340 nm. […] A standard curve with NADH concentrations ranging from 0 to 1 mM was performed. The velocities obtained in mOD340 nm per minute were then converted to micromolar NADH produced per second to calculate Vmax. To determine IC50s, PDF activity was measured in the presence of increasing concentrations of the inhibitor in the presence of substrate concentration corresponding to Km values. All data fitting was carried out with nonlinear least squares regression using the commercial software package Graphit.
# Peptide deformylase [2] = biological target: T2, Peptide deformylase (Escherichia coli (strain K12), UniProt P0A6K3)
# T2 sequence (P0A6K3 whole entry): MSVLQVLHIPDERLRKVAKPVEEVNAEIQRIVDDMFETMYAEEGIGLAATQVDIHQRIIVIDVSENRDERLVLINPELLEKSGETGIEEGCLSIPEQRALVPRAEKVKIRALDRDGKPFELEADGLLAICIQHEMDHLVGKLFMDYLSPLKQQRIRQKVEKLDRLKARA
# Description: as §1
# Peptide deformylase [3] = biological target: T3, Peptide deformylase (Staphylococcus aureus (strain Mu50 / ATCC 700699), UniProt P68825)
# T3 sequence (P68825 whole entry): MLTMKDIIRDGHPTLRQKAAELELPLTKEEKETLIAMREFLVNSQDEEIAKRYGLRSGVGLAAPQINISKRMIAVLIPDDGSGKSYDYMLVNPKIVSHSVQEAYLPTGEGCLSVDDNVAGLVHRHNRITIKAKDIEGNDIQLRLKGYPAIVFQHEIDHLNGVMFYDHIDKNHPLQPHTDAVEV
# Description: as §1
# Peptide deformylase [4] = biological target: T4, Peptide deformylase (Streptococcus pneumoniae (strain ATCC BAA-255 / R6), UniProt Q8DP79)
# T4 sequence (Q8DP79 whole entry): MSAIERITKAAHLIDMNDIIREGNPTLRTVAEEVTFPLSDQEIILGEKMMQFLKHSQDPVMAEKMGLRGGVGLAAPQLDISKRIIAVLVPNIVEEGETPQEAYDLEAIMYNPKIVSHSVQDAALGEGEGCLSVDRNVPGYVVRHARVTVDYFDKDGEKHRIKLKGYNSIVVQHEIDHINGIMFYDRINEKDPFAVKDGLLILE
# Description: as §1
Structure (SMILES),IC50 (Peptide deformylase [1]) [nM],IC50 (Peptide deformylase [2]) [nM],IC50 (Peptide deformylase [3]) [nM],IC50 (Peptide deformylase [4]) [nM]
O=CN(O)CCOc1cccc(C(=O)c2ccccc2)c1 [N-[2-(3-benzoylphenoxy)ethyl]-N-hydroxyformamide],320,–,–,–
O=CN(O)CCCc1ccccc1 [N-hydroxy-N-(3-phenylpropyl)formamide],150,160,250,400
Cc1cccc(CCCN(O)C=O)n1 [N-hydroxy-N-[3-(6-methylpyridin-2-yl)propyl]formamide],1040,–,–,–
